Measured values taken from patent US4416826A, “Peresters and use thereof” (priority 1980, dated 1983).
Where two headings read alike, the source gives them in different places.

Key:
[1] = End group analysis of polystyrene by IR
Procedure: The polystyrene obtained from each of the above polymerizations is purified by repeated (four times) precipitation from benzene solution with methanol. Before each precipitation, the benzene solution is centrifuged to remove any insoluble material. The finely powdered polymer is filtered and dried under vacuum for two days. Known amounts of polymer are dissolved in benzene and the IR is taken (2000-1500 cm^-1) against benzene in 0.1-mm NaCl cells. The peaks at 1730 and 1670 cm^-1 for the carbonyl groups, caused by ester and benzophenones, respectively, are measured. […] The extinction coefficient of the carbonyl group at 1730 cm^-1 is compared with that of authenticated methyl benzoylbenzoate, which is used as a model to measure the concentration of the ester end groups in the polymer. From the concentration of the ester and the extinction resulting from the carbonyl group in the benzophenone, the absorption caused by the benzophenone that is present as the ester can be calculated. The value is subtracted from the absorption obtained at 1670 cm^- 1 for the polymer. From the resulting absorption, the concentration of benzophenone alone is estimated from the known extinction of benzophenone at that wavelength.

[2] = Stern-Volmer triplet quenching with naphthalene; type: physicochemical; settings: CCl4
From the text: All the peresters give linear Stern-Volmer plots when naphthalene is used as triplet quencher.

Triplet energy = type: physicochemical
[3] = Relative quantum yield of initiator decomposition in presence of monomer (IR at 1770 cm^-1); type: physicochemical; settings: for relative quantum yield φrel of decomposition: benzene, initiator 2 × 10^-2 M
Procedure: (§1) Commercial styrene is washed three times with ice cold 2% NaOH solution followed by washing (four times) with distilled water. The styrene is dried over anhydrous CaCl2 and distilled under vacuum before use. The middle fraction of the distillate is used for polymerization. Solvents are purified by conventional means and distilled under N2 atmosphere.
(§2) The irradiations are carried out in degassed (three cycles of freeze-thaw under high vacuum) sealed 15-mm Pyrex tubes. The tubes are placed in a merry-go-round with a filtered UV source of 366 nm at the center and the yield of polymer is measured (below 10% conversion) gravimetrically. In all of the cases, tubes of the same size and same volume of solution are used. Number-average molecular weights of the purified polymers are determined by viscometry in a benzene solution. After the polymerization, an aliquot of 0.5 ml from each reaction tube is placed in 2-ml volumetric flasks. The solvent and excess monomer are evaporated under high vacuum for several hours. The remaining flask contents are dissolved in 0.5 ml of benzene or chloroform and the polymer is precipitated by adding 0.5 ml of n-hexane. The solution then is centrifuged and the IR of the centrifugate is measured to determine undecomposed perester. All of the above procedures are carried out as far as possible in the dark. The light intensity is measured by benzophenone-benzhydrol actinometry and observed to be Io =6.56×10^17 quanta/min on the average. The temperature of the tubes is maintained at 30° C.
The decomposition of the initiator employed is followed by IR at 1770 cm^-1 (caused by the carbonyl adjacent to the peroxy group) against an appropriate solvent blank. The initiators employed are .rho.-benzoylperoxybenzoic acid tert-butylester (Ia) and prior art benzophenone peroxide. In addition, the above procedure is repeated except that methyl methacrylate is employed in place of styrene. Table IX below illustrates the relative quantum yield for the decomposition of the initiators in the recited amounts of monomers, assuming that the quantum yield for the decomposition of the perester and peroxide in the absence of any monomer is one.

[4] = Photopolymerization of styrene, radical efficiency
Procedure: as §1, §2
The efficiency of the radicals to initiate polymerization, f, in the absence of any appreciable amount of chain transfer, can be defined as [formula] assuming bimolecular termination by the combination of two growing chains only [formula] whereas kd =rate of decomposition of perester in mol/liter sec. in the absence of monomer (a function of light intensity).

[5] = Exp. 1: benzene, [I] 10 × 10^-3 M, styrene 2 M
[6] = Exp. 2: benzene, [I] 10 × 10^-3 M, styrene 3.5 M
[7] = Exp. 3: benzene, [I] 10 × 10^-3 M, styrene 5.0 M
[8] = Exp. 4: benzene, [I] 10 × 10^-3 M, styrene 7.0 M
[9] = Exp. 5: chloroform, [I] 5.0 × 10^-3 M, styrene 5.51 M
[10] = Exp. 6: chloroform, [I] 5.0 × 10^-3 M, styrene 6.92 M
[11] = benzene, [I] 0.31 × 10^-3 M, [M] 3.5 M
[12] = benzene, [I] 0.63 × 10^-3 M, [M] 3.5 M
[13] = benzene, [I] 1.15 × 10^-3 M, [M] 3.5 M
[14] = benzene, [I] 2.52 × 10^-3 M, [M] 3.5 M
[15] = benzene, [I] 5.03 × 10^-3 M, [M] 3.5 M
[16] = benzene, [I] 8.05 × 10^-3 M, [M] 3.5 M
[17] = benzene, [I] 10.0 × 10^-3 M, [M] 2.0 M
[18] = benzene, [I] 10.0 × 10^-3 M, [M] 3.5 M
[19] = benzene, [I] 10.0 × 10^-3 M, [M] 5.0 M
[20] = chloroform, [I] 1.11 × 10^-3 M, [M] 4.33 M
[21] = chloroform, [I] 2.28 × 10^-3 M, [M] 4.33 M
[22] = chloroform, [I] 5.14 × 10^-3 M, [M] 4.33 M
[23] = chloroform, [I] 9.92 × 10^-3 M, [M] 4.33 M

In the case of `CC(C)(C)OOC(=O)c1ccc(C(=O)c2ccccc2)cc1` [Ia, t-Butyl-4-Benzoylperbenzoate], the “total number of benzophenones as end groups per chain, in words” value [1] is reported as “one benzophenone end group”, the “end groups per chain, Benzophenone” value [1, 5] is reported as 0.18 and the “end groups per chain, Benzophenone as ester” value [1, 5] is reported as 0.52. The “end groups per chain, Total” value [1, 5] was 0.70, the “end groups per chain, Benzophenone” value [1, 6] was 0.13 and the “end groups per chain, Benzophenone as ester” value [1, 6] was 0.68. The “end groups per chain, Total” value [1, 6] was 0.81, the “end groups per chain, Benzophenone” value [1, 7] was 0.33 and the “end groups per chain, Benzophenone as ester” value [1, 7] was 0.73. The “end groups per chain, Total” value [1, 7] was 1.06, the “end groups per chain, Benzophenone” value [1, 8] was 0.18 and the “end groups per chain, Benzophenone as ester” value [1, 8] was 0.81. For the same compound, the “end groups per chain, Total” value [1, 8] was 0.99, the “end groups per chain, Benzophenone” value [1, 9] was 0.29 and the “end groups per chain, Benzophenone as ester” value [1, 9] was 0.62. For the same compound, the “end groups per chain, Total” value [1, 9] was 0.91, the “end groups per chain, Benzophenone” value [1, 10] was 0.34 and the “end groups per chain, Benzophenone as ester” value [1, 10] was 0.71. The “end groups per chain, Total” value [1, 10] was 1.05, the “total number of benzophenones as end groups per chain, in words” value ([1]; listed as Perester) was “almost unity” and the “quenching constant kq τ” value [2] was 7.5. For the same compound, the “triplet energy ET” value (Triplet energy) was 67.7 kcal/mol, the “effect of styrene on quantum yield of decomposition, in words” value [3] was “Styrene drastically reduces the quantum yield of decomposition” and the “relative quantum yield φrel of decomposition” value (“relative quantum yield φrel” below) ([3]; styrene 1.09 M) was 0.25. The “relative quantum yield φrel” value ([3]; styrene 2.19 M) was 0.20, the “relative quantum yield φrel” value ([3]; styrene 3.28 M) was 0.14 and the “relative quantum yield φrel” value ([3]; styrene 4.37 M) was 0.12. For the same compound, the “relative quantum yield φrel” value ([3]; styrene 8.73 M) was “very low”, the “radical efficiency, in words” value [4] was “approaches unity at low initiator concentrations” and the “kd, rate of decomposition of perester in the absence of monomer” value ([4]; Table X footnote) was 0.000512 mol/L/s. For the same compound, the “Average degree of polymerization” value [4, 11] was 320.4, the Radical efficiency f [4, 11] was 0.92 and the “Rp × 10^5” value [4, 11] was 0.65 mole/liter sec. The φrel [4, 11] was 0.14, the “Average degree of polymerization” value [4, 12] was 166.7 and the Radical efficiency f [4, 12] was 1.21. For the same compound, the “Rp × 10^5” value [4, 12] was 0.92 mole/liter sec, the φrel [4, 12] was 0.14 and the “Average degree of polymerization” value [4, 13] was 155.5. The Radical efficiency f [4, 13] was 1.00, the “Rp × 10^5” value [4, 13] was 1.29 mole/liter sec and the φrel [4, 13] was 0.14. For the same compound, the “Average degree of polymerization” value [4, 14] was 102.8, the Radical efficiency f [4, 14] was 0.79 and the “Rp × 10^5” value [4, 14] was 1.47 mole/liter sec. The φrel [4, 14] was 0.14, the “Average degree of polymerization” value [4, 15] was 85.7 and the Radical efficiency f [4, 15] was 0.56. The “Rp × 10^5” value [4, 15] was 1.72 mole/liter sec, the φrel [4, 15] was 0.14 and the “Average degree of polymerization” value [4, 16] was 77.2. For the same compound, the Radical efficiency f [4, 16] was 0.41, the “Rp × 10^5” value [4, 16] was 1.83 mole/liter sec and the φrel [4, 16] was 0.14. For the same compound, the “Average degree of polymerization” value [4, 17] was 48.0, the Radical efficiency f [4, 17] was 0.16 and the “Rp × 10^5” value [4, 17] was 0.95 mole/liter sec. For the same compound, the φrel [4, 17] was 0.25, the “Average degree of polymerization” value [4, 18] was 137.2 and the Radical efficiency f [4, 18] was 0.15. The “Rp × 10^5” value [4, 18] was 1.50 mole/liter sec, the φrel [4, 18] was 0.14 and the “Average degree of polymerization” value [4, 19] was 219.2. The Radical efficiency f [4, 19] was 0.16, the “Rp × 10^5” value [4, 19] was 2.08 mole/liter sec and the φrel [4, 19] was 0.12. For the same compound, the φrel ([4]; chloroform, [I] 0.14 × 10^-3 M, [M] not given) was 1.32, the “Average degree of polymerization” value [4, 20] was 186.0 and the Radical efficiency f [4, 20] was 0.89. For the same compound, the “Rp × 10^5” value [4, 20] was 1.32 mole/liter sec, the φrel [4, 20] was 0.14 and the “Average degree of polymerization” value [4, 21] was 130.0. The Radical efficiency f [4, 21] was 0.86, the “Rp × 10^5” value [4, 21] was 1.83 mole/liter sec and the “Average degree of polymerization” value [4, 22] was 102.9. The Radical efficiency f [4, 22] was 0.37, the “Rp × 10^5” value [4, 22] was 2.01 mole/liter sec and the “Average degree of polymerization” value [4, 23] was 80.5. The Radical efficiency f [4, 23] was 0.40, the “Rp × 10^5” value [4, 23] was 2.29 mole/liter sec and the “rate of polymerization of styrene, in words” value ([4]; same concentration of initiators and monomer) was “almost double”.
